For assay [1], the system named is OVCAR-4. The assay is described as follows: Growth inhibition of human OVCAR4 cells after 48 hrs by SRB assay. The settings on record: OVCAR-4, 48 h. Format: functional.
Assay [2] concerns CAKI-1. Description: Growth inhibition of human Caki1 cells after 48 hrs by SRB assay. In kind it is functional. The settings on record: CAKI-1, 48 h.
The target of assay [3] is Aurora kinase A (Homo sapiens, UniProt O14965).
The subject of assay [4] is HCC 2998. The assay is described as follows: Growth inhibition of human HCC2998 cells after 48 hrs by SRB assay. Format: functional. The settings on record: HCC 2998, 48 h.
Assay [5] relates to NCI/ADR-RES. The assay is described as follows: Growth inhibition of human NCI/ADR-RES cells after 48 hrs by SRB assay. In kind it is functional. On the technique in general: Sulforhodamine B stains cellular protein and so reports cell mass.
For assay [6], the system named is COLO 205. The assay is described as follows: Growth inhibition of human COLO205 cells after 48 hrs by SRB assay. In kind it is functional. Particulars: COLO 205, 48 h.
Assay [7] relates to MOLT-4. Description: Growth inhibition of human MOLT4 cells after 48 hrs by SRB assay. Format: functional. The settings on record: MOLT-4, 48 h.
Setting [8] is: read-out: pLC50 (the source's name) (converted).

Each structure is given as a SMILES string.

Sequence of Aurora kinase A (O14965 whole entry): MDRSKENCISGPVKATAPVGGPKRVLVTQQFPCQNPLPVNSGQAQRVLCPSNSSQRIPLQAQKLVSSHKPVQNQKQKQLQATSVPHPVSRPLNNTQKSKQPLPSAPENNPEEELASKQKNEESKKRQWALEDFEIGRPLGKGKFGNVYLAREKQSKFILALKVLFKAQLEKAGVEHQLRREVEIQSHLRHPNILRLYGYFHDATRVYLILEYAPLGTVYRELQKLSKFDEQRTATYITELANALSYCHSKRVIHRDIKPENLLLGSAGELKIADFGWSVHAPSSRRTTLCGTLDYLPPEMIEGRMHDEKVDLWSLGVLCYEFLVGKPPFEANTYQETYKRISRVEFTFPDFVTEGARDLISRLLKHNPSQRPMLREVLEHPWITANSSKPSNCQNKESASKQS

Consider `N=C(N)N/N=C\c1c(-c2ccc([N+](=O)[O-])cc2)nc2sc(Br)cn12`, for which the GI50 was 191 nM in assay [1]; 234 nM in assay [2]; 234 nM in assay [4]; 219 nM in assay [5]; 166 nM in assay [6]; 195 nM in assay [7]. For the same molecule, the CC50 in assay [1] (setting [8]) is 776 nM; in assay [2] (setting [8]), 4790 nM; in assay [4] (setting [8]) it was 2340 nM; in assay [5] (setting [8]), 3550 nM; in assay [6] (setting [8]), 646 nM. Further, the TGI in assay [1] (read-out: pTGI (converted)) was 380 nM; in assay [2] (read-out: pTGI (converted)), 1070 nM; in assay [4] (read-out: pTGI (converted)), 646 nM; in assay [5] (read-out: pTGI (converted)), 891 nM; in assay [6] (read-out: pTGI (converted)), 331 nM. Besides, the IC50 in assay [3] was greater than 20000 nM.

As a reminder, the GI50 is the concentration that inhibits growth by half. Read a high GI50 as less potent growth inhibition. One may read the IC50 as the concentration needed to halve the response being measured. Higher therefore signals lower potency.

The values are drawn from ChEMBL document CHEMBL1909514, “Imidazo[2,1-b]thiazole guanylhydrazones as RSK2 inhibitors” (Eur J Med Chem, 2011).
